This note sets out measurements from US9012412B2, “Dual SGLT1/SGLT2 inhibitors” (Janssen Pharmaceutica NV, priority 2013, dated 2015).

In one assay the target is T1, human SGLT2 (Homo sapiens, UniProt P31639).
T1 construct: expressed in transfected cells
T1 sequence (P31639 1-672): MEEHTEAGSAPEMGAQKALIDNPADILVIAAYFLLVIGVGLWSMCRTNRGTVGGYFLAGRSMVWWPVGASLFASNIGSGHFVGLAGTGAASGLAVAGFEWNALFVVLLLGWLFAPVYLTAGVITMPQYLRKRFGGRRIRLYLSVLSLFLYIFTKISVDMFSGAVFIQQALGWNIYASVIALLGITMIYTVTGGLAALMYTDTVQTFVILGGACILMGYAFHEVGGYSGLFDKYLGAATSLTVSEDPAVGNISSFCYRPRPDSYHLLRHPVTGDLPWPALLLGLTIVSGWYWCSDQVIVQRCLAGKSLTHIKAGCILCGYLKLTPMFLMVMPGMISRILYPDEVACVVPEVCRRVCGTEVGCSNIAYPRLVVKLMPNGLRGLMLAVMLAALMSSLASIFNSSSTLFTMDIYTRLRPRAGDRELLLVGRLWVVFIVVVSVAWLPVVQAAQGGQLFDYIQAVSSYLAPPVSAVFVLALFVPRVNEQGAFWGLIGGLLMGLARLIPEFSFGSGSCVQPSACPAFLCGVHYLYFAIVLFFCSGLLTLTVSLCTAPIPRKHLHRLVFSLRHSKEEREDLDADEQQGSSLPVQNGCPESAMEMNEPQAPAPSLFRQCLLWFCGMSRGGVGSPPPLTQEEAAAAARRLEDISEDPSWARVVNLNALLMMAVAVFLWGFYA
In words: Sodium-dependent 14C-methyl-α-D-glucopyranoside uptake in CHO-K1 cells stably expressing human SGLT2. Format: cell-based. The method, then:
(§1) SGLT1 and SGLT2 were cloned in form of cDNA from human small intestine (Genbank M24847), and from human kidney (Genbank M95549), respectively. Subsequently, each full cDNA was subcloned into pcDNA with each construct's integrity verified through follow-on sequencing. To generate CHO-K1 cells that stably express human SGLT1 or human SGLT2 CHO-K1 cells were transfected using DMRIE-C reagent (Life Technologies, Gaithersburg, Md.). Transfected cells were then selected in the presence of 500 μg/ml of the antibiotic G418 (Gibco-BRL, Grand Island, N.Y.). Individual clones were then characterized using the following cell-based assay for sodium-dependent glucose transport.
(§2) First, cell lines stably expressing human SGLT1 or SGLT2 were seeded at a density of 65,000 cells per well per 200 μl cell culture medium with 10 mM of NaButyrate (Aldrich Catalog No. 30341-0) in a 96-well flat bottom plate (COSTAR, Catalog No. 3903). For human SGLT1 or SGLT2 expressing CHO-K1 cells the culture medium comprised Ham's F-12 (Invitrogen Catalog No. 31765), Fetal Bovine Serum (Invitrogen Catalog No. 16000), G418 (Geneticin, Cellgro Catalog No. 30234-CI), Phlorizidin (Sigma Catalog No. P3449), DPBS (Cellgro Catalog No. 21030-CV), ^14C-methyl-α-D-glucopyranoside (Amersham Catalog No. CFB 76), and Methyl-α-D-glucopyranoside (Sigma Catalog No. M-9376).
(§3) The cells were allowed to incubate for 24 hours. Subsequently, the medium was aspirated from the plates and the cells were washed one time with 150 μl assay buffer and incubate 15 min with another 150 μl assay buffer which comprised 50 mM HEPES pH 7.4, 20 mM Tris Base, 5 mM KCl, 1 mM MgCl2, 1 mM CaCl2, and 137 mM NaCl. After removing the wash buffer, 40 μl assay buffer and 10 μl compound solution was added to each well, which was again allowed to incubate for 10 min.
(§4) Following the 10 min incubation, 10 μl of serial diluted Methyl-α-D-glucopyranoside (Sigma Catalog No. M-9376) containing 0.07 μCi ^14C-methyl-α-D-glucopyranoside (Amersham Catalog No. CFB 76) was added to the appropriate well and allowed to incubate for another 2 hours. ^14C-methyl-α-D-glucopyranoside (Sigma Catalog No. M-9376, St. Louis, Mo.) is a non-metabolizable glucose analog specific for sodium-dependent glucose transporters as previously described by H. Peng and J. E. Lever in “Post-transcriptional regulation of Na+/glucose cotransporter (SGLT1) gene expression in LLC-PK1 cells,” J. Biol. Chem. 270, 20536-42 (1995).
(§5) Next, the plates were twice washed with 150 μl of ice-cold DPBS (Cellgro Catalog No. 21030) that was then completely removed from the plates before adding 50 μl of MicroScint™-20 (Packard Catalog No. 6013621) to each well for a 20 min or longer incubation time.
(§6) Sodium-dependent ^14C-methyl-α-D-glucopyranoside uptake was quantified by measuring radioactivity. Plates were counted in a TopCount (Packard, Meriden, Conn.). Results are reported as the %-inhibition or IC50 value from a representative experiment. Variability for the functional assay was typically within 20%.

The next assay addresses T2, human SGLT1 (Homo sapiens, UniProt P13866).
T2 construct: expressed in transfected cells
T2 sequence (P13866 1-664): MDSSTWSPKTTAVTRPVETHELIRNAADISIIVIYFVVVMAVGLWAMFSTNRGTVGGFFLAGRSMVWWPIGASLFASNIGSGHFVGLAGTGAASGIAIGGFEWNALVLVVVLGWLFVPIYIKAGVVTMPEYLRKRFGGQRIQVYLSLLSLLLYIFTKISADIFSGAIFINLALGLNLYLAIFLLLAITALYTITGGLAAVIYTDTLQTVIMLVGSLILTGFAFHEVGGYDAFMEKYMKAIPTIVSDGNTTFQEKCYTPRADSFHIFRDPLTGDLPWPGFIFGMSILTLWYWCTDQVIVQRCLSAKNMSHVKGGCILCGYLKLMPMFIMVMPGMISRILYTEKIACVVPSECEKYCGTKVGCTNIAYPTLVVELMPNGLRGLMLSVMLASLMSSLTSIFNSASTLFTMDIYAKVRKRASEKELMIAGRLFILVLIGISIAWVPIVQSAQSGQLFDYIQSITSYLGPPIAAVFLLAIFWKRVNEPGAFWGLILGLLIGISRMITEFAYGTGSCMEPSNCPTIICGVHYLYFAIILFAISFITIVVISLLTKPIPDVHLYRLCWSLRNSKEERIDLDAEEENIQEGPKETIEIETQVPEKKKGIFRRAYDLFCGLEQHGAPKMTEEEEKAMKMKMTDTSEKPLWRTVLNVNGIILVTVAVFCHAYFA
Kind of assay: Sodium-dependent 14C-methyl-α-D-glucopyranoside uptake in CHO-K1 cells stably expressing human SGLT1. Conditions: 14C-methyl-α-D-glucopyranoside uptake. The assay is classed as cell-based. On the procedure:
as §1, §2, §3, §4, §5, §6

As a reminder, the inhibition is how much of the control response was suppressed. Read a low inhibition as a response near the control. A word on the IC50: it is the concentration at which inhibition is half-maximal. High values mean lower potency, low ones higher potency. On human SGLT2 (compound at 0.1 μM), `Cc1cc(O)c([C@@H]2O[C@H](CO)C[C@H](O)[C@H]2O)cc1Cc1ccc(-c2ccc(F)cc2)s1` [Cpd 31, (2S,3R,4S,6S)-2-(5-((5-(4-fluorophenyl)thiophen-2-yl)methyl)-2-hydroxy-4-methylphenyl)-6-(hydroxymethyl)tetrahydro-2H-pyran-3,4-diol] displayed an inhibition at 0.1 µM of 58%. The IC50 against human SGLT1 was found to be 272 nM.

For the compound `CCc1ccc(Cc2cc([C@@H]3O[C@H](CO)C[C@H](O)[C@H]3O)c(O)cc2C)s1` [Cpd 32, (2S,3R,4S,6S)-2-(5-((5-ethylthiophen-2-yl)methyl)-2-hydroxy-4-methylphenyl)-6-(hydroxymethyl)tetrahydro-2H-pyran-3,4-diol], the figures for the IC50 against human SGLT2 (14C-methyl-α-D-glucopyranoside uptake) and against human SGLT1 were 4 nM and 97 nM, respectively.
